# Key:
# [1] = system: bleomycin-induced lung epithelial cell (LEC) apoptosis; assay: TUNEL staining for apoptosis of lung sections of bleo-treated mice; type: in vivo, mouse; conditions: for Lung epithelial cell apoptosis: appearance of cells / Lung epithelial cell apoptosis: cell death: bleo-treated animals, peptide one day after bleo; for Lung epithelial cell apoptosis: appearance of cells: lung tissue day 21; for Lung epithelial cell apoptosis: cell death: lung tissue day 21, TUNEL
# Experimental: The mice were sacrificed 24, 48 and 72 h later. Lungs were excised, inflated and fixed in formalin, and […] sections were analyzed by TUNEL staining. […]
# bleo-treated lung = assay: Histology of lung tissue of bleo-treated animals, pathological observations; type: in vivo, mouse; conditions: conclusion from Table 3, day 21
# Source text: (§1) FIGS. 14A & 14B is a series of photomicrographs of lung epithelial tissue stained with Mason's trichrome stain for collagen (FIG. 10A) and by TUNEL staining for apoptosis (FIG. 10B). Bleo-treated animals were instilled with either PP-1, PP-2 or control peptide CP-1 one day after bleo treatment, The lungs were removed on day 21, subjected to the staining procedures and examined for collagen accumulation or apoptosis.
# (§2) A comparison was made of normal and bleo-treated lung, and the effect of PP-1 and PP-2 on the bleo-treated lungs were examined. Animals were treated with bleo and peptides as above. Lung tissue was removed at day 21 and stained with Mason's trichrome stain for collagen and subjected to TUNEL staining for apoptosis.
# [2] = system: bleo-induced lung injury in the mouse; assay: Lung hydroxyproline (collagen deposition) after bleo-induced lung injury; type: in vivo; conditions: for bleomycin-induced collagen deposition (hPro content, % of control): 10 mM peptide i.p. osmotic pump 7 days after bleo
# Experimental: (§3) FIGS. 10A and 10B are graphs showing the effect of PP-1 on fibrosis following bleo-induced lung injury in the mouse. […] 24 h after bleo, 0.1 ml osmotic pump filled with 10 mM PP-1 (designated “Bleo+PP” in Figures) or CP1 control scrambled peptide (“Bleo+CP1”) were implanted intraperitoneally. Lungs were harvested after 21 days, homogenized and the homogenates were subjected to the analysis of hydroxyproline or desmosine levels.
# Anesthetized mice received intranasal bleomycin HCl solution containing 40 μg/50μl in sterile saline solution. After 24 h, 7 days or 14 days 10 mM PP-1 (“Bleo+PP-1”) or control peptide (Bleo+CP-1) were given ip using a 0.1 ml osmotic pump. Mice were sacrificed and lungs excised 21 days later. Lung homogenates were analyzed for hydroxyproline. Results are expressed a % of control hydroxyproline concentration.
# Anesthetized mice received intranasal bleomycin HCl solution containing 40 μg/50 μl in sterile saline solution. After day 7, 10 mM peptide PP-2 (“Bleo+PP-2”) or control peptide (“Bleo+CP-2) were given intraperitoneally using a 0.1 ml osmotic pump. Lungs were excised after 21 days, lungs were homogenized and the homogenates were analyzed for hydroxyproline. Results are expressed a % of control hydroxyproline concentration.
# The hPro content of the whole mouse lungs tissues were measured using the technique of Woessner J F, 1961, Arch. Biochem. Biophys. 93:440-7). Lung tissue from each animal was homogenized in 1.0 ml of extraction buffer. One ml 12N HCl was added, and the samples were hydrolyzed at 110° C. for 24 h. After cooling, 5 μl of the samples were mixed with 5 μl of citrate-acetate buffer (5% citric acid, 1.2% glacial acetic acid, 7.25% sodium acetate and 3.4% sodium hydroxide) and 100 μl of chloramine-T solution (1.4% chloramine-T, 10% N-propanol, and 80% citrate acetate buffer) in 96 well plates. The mixture was incubated for 20 min at room temperature. A total of 100 μl of Ehrlich's solution (2.5 g p-dimethylaminobenzaldehyde added to 9.3 ml of n-propanol and 3.9 ml of 70% perchloric acid) was added to each well and the plates incubated at 65° C. for 18 min. The absorbance of each sample was measured at 550 nm. Standard curves were generated for each experiment using a known concentration of reagent hPro. Results were expressed as % changes in hPro content (with total hPro content of saline-treated control mouse lungs considered 100%).
# (§4) Lungs were harvested after 21 days, homogenized and the homogenates were subjected to the analysis of hydroxyproline as above (FIG. 10A) or desmosine (FIG. 10B). The effect of PP-1 on fibrosis in bleo-induced mouse lung injury was evaluated. Mice were treated with saline or 50 μg Bleo intranasally were implanted one day later with, 0.1 ml osmotic pumps i.p. The pumps were filled with either 10 mM (2.92 mg/100 μl) PP-1 (“Bleo+PP-1”) or control scrambled peptide CP-1 (“Bleo+CP-1”).
# [3] = biological target: integrin-caveolin-uPAR complexes (Homo sapiens, UniProt Q03405); conditions: at a concentration that blocked adhesion; Wei Y et al., 1996; cited from earlier work
# Sequence of integrin-caveolin-uPAR complexes (Q03405 23-305, one chain of several): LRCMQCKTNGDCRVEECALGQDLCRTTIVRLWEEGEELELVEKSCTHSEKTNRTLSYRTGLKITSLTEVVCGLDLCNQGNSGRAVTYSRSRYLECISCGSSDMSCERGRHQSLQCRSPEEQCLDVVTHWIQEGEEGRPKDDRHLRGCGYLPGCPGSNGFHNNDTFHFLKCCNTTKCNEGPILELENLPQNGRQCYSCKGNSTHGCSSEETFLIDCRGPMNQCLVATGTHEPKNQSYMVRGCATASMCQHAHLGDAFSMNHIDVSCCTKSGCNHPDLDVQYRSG
# [4] = system: uPAR-dependent adhesion of cells to vitronectin; conditions: Wei Y et al., 1996, Science 273; cited from earlier work
# [5] = system: bleo-induced collagen deposition in mouse lung; assay: Mason's Trichrome stain for collagen of lung sections of bleo-treated mice; type: in vivo; conditions: for Collagen content in lung section: bleo-treated animals, peptide one day after bleo, day 21, trichrome stain
# Experimental: FIG. 13 is a set of photomicrographs showing that PP-1 prevents bleo-induced collagen deposition in mouse lung. Mice were treated with bleo (50 μg/ml) by intranasal instillation followed by treatment with PP-1 (10 nM) or control peptide CP-1 on day 2. Lungs were excised on day 21, inflated and fixed in formalin, a sectioned into […] sections which were subjected to Mason's Trichrome stain (a three-color stain that stains cell nuclei red, collagen green or blue, and cytoplasm red). Blue staining indicates collagen deposition in bleo-treated lung sections.
# as §1
# Collagen deposition in mouse lung after bleo treatment was investigated. Mice were treated with bleo (50 μg/ml) by intranasal instillation followed by treatment with PP-1 (10 nM) (designated as PP in Figure) or control peptide CP-1 (designated CP in FIG. 13) on day 2. Lungs were excised on day 21, inflated and fixed in formalin, a sectioned into […] sections which were subjected to Mason's Trichrome stain (a three-color stain that stains cell nuclei red, collagen green or blue, and cytoplasm red).
# as §2
# cleaved PARP = assay: IHC of lung sections of bleo-treated mice: cleaved PARP; type: in vivo, mouse; conditions: peptide 4.5 μM i.p. days 1 and 2, bleomycin 40 μg/50 μl intranasal day 2; up to 72 h
# Experimental: On day 2 mice were treated with bleomycin (40 μg/50μl) by intranasal instillation. Mice were sacrificed 24, 48 and 72 h after later, lungs were excised, inflated and fixed in formalin, and […] sections were analyzed by immunohistochemistry (IHC) using an antibody specific for cleaved PARP.
# (§5) For immunohistochemical (IHC) analysis, lungs were inflated at constant pressure of 20 cm H2O, removed and fixed overnight in 2% paraformaldehyde in PBS. Tissue was dehydrated by passage through a standard alcohol series and was embedded in paraffin. 5 μm sections were deparaffinized with xylene followed by incubation with 100% and 95% alcohol. After 10 min of antigen retrieval, the slides were incubated with H2O2 for 30 min to quench endogenous peroxidase. Slides were incubated overnight with the respective antibodies in PBS containing 0.1% Tween 20 and further processed using Lab vision kit (Freemont Calif.).
# [6] = system: bleo-induced lung injury in the mouse; assay: Lung desmosine (elastin) after bleo-induced lung injury; type: in vivo; conditions: 50 μg Bleo intranasally; 10 mM peptide in 0.1 ml osmotic pump i.p. one day later; lungs after 21 days
# Experimental: as §3, §4
# PAI-1 = assay: IHC of lung tissue of bleo-treated mice: PAI-1; type: in vivo, mouse; conditions: bleomycin-treated mice, 24-72 h
# Experimental: as §5
# (§6) An IHC study was conducted to analyze lung tissue for expression p53, uPA, uPAR, PAI-1 and cleaved caspase 3 (Table 2). […] These IHC observations were confirmed by Western blotting (see Example II and FIG. 5).
# p53 = assay: IHC of lung tissue of bleo-treated mice: p53; type: in vivo, mouse; conditions: bleomycin-treated mice, 24-72 h
# Experimental: as §5, §6
# [7] = bleomycin 40 μg/50 μl intranasal, lungs after 21 days
Sequence,Lung epithelial cell apoptosis: appearance of cells [1],Lung epithelial cell apoptosis: cell death [1],effect on bleo-induced lung injury / Bleo-damaged lung tissue (bleo-treated lung),"bleomycin-induced collagen deposition (hPro content, % of control) [2, 7]",disruption of integrin-caveolin-uPAR complexes [3],uPAR-dependent adhesion of cells to vitronectin [4],Collagen content in lung section [5],"development of bleo-induced lung fibrosis ([5]; conclusion from Table 3, day 21)",cleavage (degradation) of PARP in lung (cleaved PARP),lung desmosine levels [6],PAI-1 expression in lung tissue (IHC) (PAI-1),p53 expression in lung tissue (IHC) (p53),"apoptosis (TUNEL positive cells) ([1]; peptide 4.5 μM i.p. on day 1 and 2, bleomycin 40 μg/50 μl intranasal on day 2, 24, 48 and 72 h)","lung hydroxyproline levels ([2]; 50 μg Bleo intranasally, 10 mM peptide in 0.1 ml osmotic pump i.p. one day later, lungs after 21 days)","bleomycin-induced collagen deposition (hydroxyproline, % of control) ([2]; bleomycin 40 μg/50 μl intranasal, 10 mM peptide i.p. osmotic pump after 24 h, 7 days or 14 days, lungs 21 days)"
AESTYHHLSLGYMYTLN [CP-2],"Fibrotic cells,",90% cell,did not have any discernible effect on Bleo-damaged lung tissue,but not its control peptide CP-2 reversed bleomycin induced increases in collagen deposition,disrupted integrin-caveolin-uPAR complexes,inhibited uPAR-dependent adhesion of cells to vitronectin,Increased,,,,,,,,
"NYHYLESSMTALYTLGH [PP-2, initially disclosed as scrambled control for Peptide 25 of Wei Y et al]","No fibrosis,",11% cell,protected LECs from bleo-induced lung injury,significantly suppressed collagen deposition,"but not its control, disrupted integrin-caveolin-uPAR complexes",but not its control (which is PP-2 here) inhibited uPAR-dependent adhesion of cells to vitronectin,Minimal,prevented the development of bleo-induced lung fibrosis,,,,,,,
"WGIDKAFFTTSTVTYKWFRY [CP-1, scrambled control peptide for PP-1 with the same amino acid composition]","Fibrotic cells,",90% cell,did not have any discernible effect on Bleo-damaged lung tissue,,,,Increased,,but not control peptide CP-1 reversed such PARP degradation,did not have this effect,but not control peptide (CP-1) reduced this PAI-1 expression,"but not control peptide CP-1, blocked bleomycin induced p53 expression","but not with control peptide, reversed bleomycin-induced apoptosis",did not have this effect,but not control peptide CP-1 reversed bleomycin-induced increases in collagen deposition
